Data reported in US20210371817A1, “COMPOSITIONS AND METHODS FOR PRECISE PATTERNING OF POSTERIOR NEUROECTODERM FROM HUMAN PLURIPOTENT STEM CELLS” (WISCONSIN ALUMNI RESEARCH FOUNDATION, priority 2013, published 2021).

Experiments:
[1] = tested on: H9 hESCs; test: HOX, OTX2 and T gene expression by RT-PCR/qPCR during hESC differentiation with morphogens; type: cell-based, human; conditions: neuromesodermal state
Procedure: hPSC differentiation. hPSCs were washed once with phosphate-buffered saline (PBS; Invitrogen), dissociated with ACCUTASE® (Invitrogen) for 3 min, and collected by centrifugation. hPSCs were then seeded onto VTN-NC-coated plates in E8 medium containing 10 μM ROCK inhibitor (Y27632; R&D Systems). Seeding density was 2×10^5 cells/cm^2. The following day, the cells were switched to E6 medium (same composition as E8 medium minus FGF2 and TGFβ 1). Morphogen treatments were then carried out according to the figures in the text. Cells were supplemented with FGF8b (100-200 ng/ml; Peprotech), CHIR99021 (3-6 μM; Tocris), and/or RA (3 μM; Sigma).
Reverse transcriptase polymerase chain reaction (RT-PCR). Total RNA was extracted from cells using TRIZOL® reagent (Invitrogen) according to the manufacturer's instructions. RNA was then subjected to reverse-transcription using a Thermoscript™ RT-PCR kit (Invitrogen) in a 20 μL mixture according to the manufacturer's instructions. The resulting cDNA was then amplified in a 25 μL mixture containing 10×PCR buffer, 0.2 mM dNTP, 1.5 mM MgCl2, 0.5 μM of each primer, and 1 U Taq DNA polymerase (Invitrogen). Amplified products were resolved on 2% agarose gels containing SYBR Safe (Invitrogen) and visualized with a VersaDoc (BioRad). Primer sequences can be found in Table 3. All amplifications were carried out for 35 cycles. HOXC5 and HOXC6 were amplified at 58° C., all others with an annealing temperature of 55° C.
Propagation and differentiation of neuromesodermal progenitors. H9 hESCs (passage 25-45), H9 ishcat2 hESCs (passage 33-43), and IMR90-4 iPSCs (passage 31-40) were maintained in E8 medium on MATRIGEL© (BD Biosciences) as previously described. To initiate differentiation, hPSCs were passaged with ACCUTASE© (Life Technologies) onto vitronectin (VTN-NC)-coated plates at a density of 1×10^5 cells/cm^2 as previously described. The following day, cells were changed to E6 medium. 24 h later, cells were changed to E6 medium containing 200 ng/ml FGF8b (Peprotech). 24 h later, cells were washed once with 2 ml PBS, treated with ACCUTASE® for 2 min, and removed from the surface by gentle pipetting. After collection by centrifugation, cells were gently resuspended in E6 medium containing 200 ng/ml FGF8b and CHIR99021 (CHIR, concentration varied depending on cell line; Tocris) and re-seeded on VTN-NC-coated plates at a density of 1.5×10^5 cells/cm^2. Medium was not changed until 48 h after passaging. This passaging process was repeated on day 3 of CHIR 99021 treatment (re-seed density of 1.2×10^5 cells/cm^2) if extended neuromesodermal propagation was required, and 50 ng/ml GDF11 (Peprotech) was added on day 4 of CHIR 99021 treatment to initiate lumbar patterning. Cells were changed to E6 medium containing 1 μM retinoic acid (RA; Sigma) to facilitate neural transition.
qPCR. Total RNA was extracted from cultured cells using TRIZOL® (Life Technologies) according to the manufacturer's instructions. After isolation, 2-5 μg of total RNA was immediately subjected to reverse transcription using the Thermoscript™ RT-PCR kit (Life Technologies) in a 20 μL reaction according to the manufacturer's instructions. […] For all experiments, ΔΔCt values for each gene were calculated relative to ribosomal protein S18 (RPS18) RNA levels and converted to fold difference assuming 100% primer efficiency, then normalized to maximum expression levels as indicated in each figure legend. […]

[2] = tested on: neuromesodermal cells; test: Pax6 and HoxD10 expression after GDF11 with or without dorsomorphin, then RA; type: cell-based, human; conditions: GDF11 present in the neuromesodermal morphogen cocktail
Excerpt: (FIG. 7A) Timeline of differentiation. (FIG. 7B) qPCR assessment of lumbar/sacral gene expression at day 12. A minimum concentration of GDF11 is required to activate HoxD10 and HoxA11. Each gene is normalized to the maximum GDF11 dose. Error bars are standard deviation calculated from duplicate reactions. (FIG. 7C) Expression of Pax6 in response to increased GDF11 concentrations. Data were collected by flow cytometry and represented as mean±standard deviation calculated from two biological replicates. Sox2 was uniformly expressed regardless of GDF11 treatment (data not shown). […] Grey histograms, IgG control; Red histograms, Pax6. Data are representative of two biological replicates. […] Percentages were quantified as HoxD10 labeling relative to DAPI-stained nuclei (>2500 total cells counted per sample). Scale bars, 100 μm
After neural tube closure in vivo, opposing gradients of TGFβ and SHH signaling produce distinct dorsal and ventral domains from which sensory neurons, interneurons, and motor neurons arise. Pax6, which has been identified as a neuroectoderm fate determinant, is expressed throughout most of the neural tube but is absent from the most dorsal and ventral domains. […] The ability of GDF11 to control rostral/caudal patterning is mediated by signaling via ALK5 and activation of the SMAD2/3 complex. […]

GDF11: Growth differentiation factor 11, a TGFβ family member
Expression of hindbrain/cervical genes HOXA4, HOXB4, HOXC6 ([1]; data not shown): did not repress | Activation of lumbar and sacral HOX paralogs ([1]; qPCR, GDF11 50 ng/ml): necessary for robust activation of lumbar (HOX10) and sacral (HOX11) paralogs | Pax6 expression after RA [2]: decreased
